Test results taken from patent publication US6811970B2, “Assay for identifying inhibitors of HIV RT dimerization” (priority 2001, dated 2004).

What was measured:
[1] = target: HIV-1 RT p66/p51 heterodimer (Human immunodeficiency virus type 1 group M subtype B, UniProt P04585, C625S/C867S/P588C); test: TRF microplate assay of p66/p51 RT heterodimer formation; conditions: compound at 10 μM; dimer formation 6 h; urea diluted 3.5 M to 0.35 M
Description: The general principle of the assay involves mixing of His6x-p51 with fluorophore-labeled p66 RT in solution, with subsequent solid-phase capture of resulting His6x-p51/fluorophore-labeled p66 RT heterodimer on Ni^2+-NTA microplates. After washing to remove unbound material, the amount of microplate-associated fluorescence is measured in an appropriate fluorescence plate reader.
In a total volume of 20 μl, mix 100 pmol of purified His6x-p51 RT subunit and 200 pmol of Eu-N1-iodoacetamido chelate labeled p66 RT subunit (i.e., 100 pmol RT p66/p66 homodimer) with urea (prepared in 25 mM Tris-HCl pH 7.5, 20° C., containing 100 mM MgCl2) to provide a final concentration of 3.5 M urea. Incubate this mixture for 1 h at room temperature.
Dilute this solution into 200 μL of a solution of the compound of interest at 10 μM (in 25 mM Tris-HCl pH 7.5, 20° C., containing 50 mM Na2SO4) contained in a well of a 96-well Ni-NTA HiSorb Plate.
The dilution step provides a 10-fold dilution to reduce the urea concentration from 3.5M to 0.35M, thereby allowing formation of the RT p66/p51 heterodimer. Dimer formation is allowed to proceed for 6 h, then the plates are washed 3× with Delfia wash buffer containing 200 μM DTPA. After washing, 200 μL of the Delfia enhancement solution is added to each well, followed by incubation at room temperature for 30 minutes.

[2] = target: T1, Eu^3+-labeled P2C/C38S/C280S p66/p66 RT (Human immunodeficiency virus type 1 group M subtype B, UniProt P04585, C625S/C867S/P588C); test: Inhibition of Eu3+-labeled P2C/C38S/C280S p66/p66 RT by HIV RT inhibitors; format: biochemical, HIV-1; conditions: P2C/C38S/C280S p66/p66 RT alkylated with Eu-N1-iodoacetamido chelate
T1 construct: made in house; host or cells: E. coli JM109 (pKK-RT66-P2C), then chemical alkylation
Description: Purified P2C/C38S/C280S p66/p66 RT was concentrated to approximately 20 μM (˜2.5 mg/ml) in 50 mM Tris-HCl buffer (pH 7.9 at 20° C.) containing 100 mM NaCl and 1 mM TCEP-HCl (Tris(2-carboxyethyl)phosphine hydrochloride (Pierce)) at room temperature. An aliquot of Eu-N1-iodoacetamido chelate protein-modification reagent (prepared as a 5 mM stock solution in DMSO) was added to provide an approximately 20-fold molar excess relative to the p66 subunit concentration. The alkylation reaction was allowed to proceed for up to 6 hours at room temperature. Alternatively, the reaction may be carried out overnight at 4° C. Upon completion of the reaction, an excess of DTT was added to consume unreacted Eu-N 1-iodoacetamido chelate. The alkylated p66/p66 RT was separated from the DTT-reagent conjugate by two passages through a NAPT™ 25 column equilibrated with a 25 mM Tris-HCl buffer (pH 7.5, 20° C.) containing 60 mM MgCl2 and 50% glycerol. The stoichiometry of labeling was generally found to be between 0.7-1 mol of Eu-N1-iodoacetamide per mol of p66 RT subunit (i.e., 1.5-2 mol/mol p66/p66 RT homodimer).

[3] = target: T2, unlabeled P2C/C38S/C280S p66/p66 RT (Human immunodeficiency virus type 1 group M subtype B, UniProt P04585, C625S/C867S/P588C); test: Inhibition of unlabeled P2C/C38S/C280S p66/p66 RT by HIV RT inhibitors; format: biochemical, HIV-1
T2 construct: made in house; host or cells: E. coli JM109 (pKK-RT66-P2C)

WT p66/p66 RT = target: T3, WT p66/p66 RT (Human immunodeficiency virus type 1 group M subtype B, UniProt P04585); test: Inhibition of WT p66/p66 RT (data not shown); format: biochemical, HIV-1
T3 construct: IPTG-dependent expression of the non-HIS-tagged 66 kDa RT subunit; made in house; host or cells: E. coli JM109 (pKK-RT66WT)
Source text: The P2C/C38S/C280S p66/p66 RT chemically alkylated with the Eu-N1-iodoacetamido chelate retains approximately 80% of the RDDP activity of the unmodified protein (Table 1). […] Thus, the genetic and chemical manipulations of RT required to prepare reagents for the dimerization assay appear to have little effect on the response of the enzyme within the parameters of the assay protocol.

HIV-1 RT = HIV-1 RT (Human immunodeficiency virus type 1 group M subtype B, UniProt P04585); conditions: Tachedjian et al., 2001, PNAS, 7188-7193; cited from earlier work

In the case of `Cc1cn([C@@H]2O[C@H](CO[Si](C)(C)C(C)(C)C)[C@@]3(OS(=O)(=O)C=C3N)[C@H]2O[Si](C)(C)C(C)(C)C)c(=O)n(C)c1=O` [TSAOm^3T], the “TRF signal relative to control (RT dimerization, FIG. 5B)” value [1] is reported as “decreases the signal”.

In the case of `CCn1c(=O)c(C)cn([C@@H]2O[C@H](CO[Si](C)(C)C(C)(C)C)C3(OS(=O)(=O)C=C3N)[C@H]2O[Si](C)(C)C(C)(C)C)c1=O` (some centres unmarked) [TSAOe3T], the IC50 [2] is reported as 3000 nM, the IC50 [3] is reported as 3000 nM and the “Sensitivity of WT p66/p66 RT to inhibition compared with unmodified P2C/C38S/C280S p66/p66 mutant” value (WT p66/p66 RT) is reported as “equally sensitive”.

In the case of `Cc1ccnc2c1NC(=O)c1cccnc1N2C1CC1` [Nevirapine], the “Effect on dimerization of the HIV-1 RT as reported” value (HIV-1 RT) is given as “chemical enhancers of dimerization”.
